The subject of data set [1] is MCF-7 (breast carcinoma) cell line. The data set is described as follows: MTT cytotoxic assay, MCF-7. Type of data set: cell-based. Conditions: for IC50: MTT, 72 h, 3 repetitions, read-out: IC50 ± SD MCF-7. The method, then: The antiproliferative activity of all the synthesized compounds (8a-8 h) was done by MTT (standard 3-(4,5-dimethylthiazol-yl)-2,5-diphenyl-tetrazolium bromide) assay according to our previous protocols. MCF-7 (breast carcinoma) and SW480 (Colorectal carcinoma) cell lines were choose and purchased from the National Cell Bank of Iran (NCBI, Pasteur Institute, Tehran, Iran). RPMI 1640 culture media with 10% fetal bovine serum (FBS) and 1% penicillin-streptomycin (Gibco, USA) were applied as culture. Trypsin/EDTA 0.5% solution (Gibco/USA) was used to harvest cells and then, the cells were seeded at a density of 1 × 10^4 cells per well in 96-well microplates. […] Three untreated wells were applied as the negative control. After 72 h, the media was changed by 100 µL fresh MTT solution and incubated for 4 h at 37 °C in the incubator to achieve formazan purple crystals. Finally, the media was removed and 150 µL of DMSO was added and incubated at 37 °C in the dark for 10 min to dissolve the crystals. A Microplate ELISA reader was applied to read the absorbance of individual wells at 490 nm. Analysis of the data was obtained by Excel 2016 and Curve Expert 1.4. The data was expressed as the mean ± SD for each analysis. GraphPad Prism software was used to perform one-way ANOVA statistical analyses, followed by Tukey’s multiple comparison test.

The test system of the next data set is MRC-5 normal cell line. The data set is described as follows: MTT cytotoxic assay, normal cell line MRC-5. Type of data set: cell-based. Conditions: read-out: IC50 ± SD MRC-5. Background: Formazan colour is commonly taken as a measure of viable cells.
Data set [2] relates to SW480 (Colorectal carcinoma) cell line. The data set is described as follows: MTT cytotoxic assay, SW480. Type of data set: cell-based. Conditions: Homo sapiens, 72 h, 3 repetitions, read-out: IC50 ± SD SW480. The method, then: The antiproliferative activity of all the synthesized compounds (8a-8 h) was done by MTT (standard 3-(4,5-dimethylthiazol-yl)-2,5-diphenyl-tetrazolium bromide) assay according to our previous protocols. MCF-7 (breast carcinoma) and SW480 (Colorectal carcinoma) cell lines were choose and purchased from the National Cell Bank of Iran (NCBI, Pasteur Institute, Tehran, Iran). RPMI 1640 culture media with 10% fetal bovine serum (FBS) and 1% penicillin-streptomycin (Gibco, USA) were applied as culture. Trypsin/EDTA 0.5% solution (Gibco/USA) was used to harvest cells and then, the cells were seeded at a density of 1 × 10^4 cells per well in 96-well microplates. Five different concentrations of the derivatives and Cisplatin as the positive control (1 to 200 µM) were used for treatment in triplicate times. Three untreated wells were applied as the negative control. After 72 h, the media was changed by 100 µL fresh MTT solution and incubated for 4 h at 37 °C in the incubator to achieve formazan purple crystals. Finally, the media was removed and 150 µL of DMSO was added and incubated at 37 °C in the dark for 10 min to dissolve the crystals. A Microplate ELISA reader was applied to read the absorbance of individual wells at 490 nm. Analysis of the data was obtained by Excel 2016 and Curve Expert 1.4. The data was expressed as the mean ± SD for each analysis. GraphPad Prism software was used to perform one-way ANOVA statistical analyses, followed by Tukey’s multiple comparison test.

Where [3] appears, read: Homo sapiens, MRC5, 3 repetitions.

Where two headings read alike, the source gives them in different places. Where only a bound is given, the exact number is not on record here.

As usually defined, the melting point is the temperature of the solid-liquid transition. One may read the IC50 as the point on the concentration scale where inhibition reaches its midpoint.

For `CCCCSc1nc2ccc(Br)cc2c(=O)n1-c1ccccc1` [8a, 6-bromo-2-(butylthio)-3-phenylquinazolin-4(3 H )-one], the melting point fell in the range of 128 to 130 °C. Moreover, in data set [1] (Homo sapiens, MCF7), the IC50 worked out at 15.8 ± 1.48 µM. For the same molecule, the “times more potent than Erlotinib in MCF-7 cell line” value in data set [1] (cytotoxic activity compared with Erlotinib) is reported as “about 2 times”. Also, the IC50 with MRC-5 normal cell line (setting [3]) is 84.2 ± 1.72 µM. For the same molecule, the half-inhibitory concentration (IC50) in data set [2] is 17.9 ± 0.92 µM.

As to `CCCCCSc1nc2ccc(Br)cc2c(=O)n1-c1ccccc1` [8b, 6-bromo-2-(pentylthio)-3-phenylquinazolin-4(3 H )-one], the melting point fell in the range of 99 to 101 °C. Further, the 50% inhibitory concentration (IC50) in data set [1] (Homo sapiens, MCF7) came out at 18.2 ± 2.01 µM. Also, the IC50 in the data set on MRC-5 normal cell line (setting [3]) turned out to be 76.4 ± 2.62 µM. Besides, the IC50 in data set [2] was found to be 56.5 ± 2.83 µM.

`O=c1c2cc(Br)ccc2nc(SCc2ccccc2)n1-c1ccccc1` [8c, 2-(benzylthio)-6-bromo-3-phenylquinazolin-4(3 H )-one] displayed a melting point of 140 to 142 °C. Also, the IC50 in data set [1] (Homo sapiens, MCF7) is 142 ± 3.95 µM. In the data set with MRC-5 normal cell line (setting [3]), the half-maximal inhibitory concentration (IC50) is > 100 µM. For the same molecule, the IC50 in data set [2] was 170.1 ± 1.34 µM.

As to `Cc1cccc(CSc2nc3ccc(Br)cc3c(=O)n2-c2ccccc2)c1` [8d, 6-bromo-2-((3-methylbenzyl)thio)-3-phenylquinazolin-4(3 H )-one], the melting point was 101 to 103 °C. Moreover, the IC50 in data set [1] (Homo sapiens, MCF7) is 59.1 ± 3.73 µM. Besides, the 50% inhibitory concentration (IC50) with MRC-5 normal cell line (setting [3]) is > 100 µM. Further, in data set [2], the IC50 came to 72.5 ± 2.9 µM.

As for `Cc1ccc(CSc2nc3ccc(Br)cc3c(=O)n2-c2ccccc2)cc1` [8e, 6-bromo-2-((4-methylbenzyl)thio)-3-phenylquinazolin-4(3 H )-one], the melting point was 164 to 166 °C. In addition, the IC50 in data set [1] (Homo sapiens, MCF7) was found to be 35.1 ± 3.02 µM. In addition, in the data set with MRC-5 normal cell line (setting [3]), the IC50 is > 100 µM. Also, the IC50 in data set [2] stood at 63.1 ± 1.63 µM.

For `O=c1c2cc(Br)ccc2nc(SCc2ccc(Cl)cc2)n1-c1ccccc1` [8f, 6-bromo-2-((4-chlorobenzyl)thio)-3-phenylquinazolin-4(3 H )-one], the melting point was 145 to 147 °C. In addition, in data set [1] (Homo sapiens, MCF7), the 50% inhibitory concentration (IC50) came to 52.5 ± 2.92 µM. The concentration for half-maximal inhibition (IC50) with MRC-5 normal cell line (setting [3]) is > 100 µM. Further, in data set [2], the IC50 amounted to 72.2 ± 1.41 µM.

`O=c1c2cc(Br)ccc2nc(SCc2ccc(Br)cc2)n1-c1ccccc1` [8g, 6-bromo-2-((4-bromobenzyl)thio)-3-phenylquinazolin-4(3 H )-one]: the melting point is 175 to 177 °C. Also, the IC50 in data set [1] (Homo sapiens, MCF7) amounted to 62.4 ± 3.32 µM. Also, the IC50 in the data set on MRC-5 normal cell line (setting [3]) is > 100 µM. In addition, in data set [2], the IC50 was 68.4 ± 2.62 µM.

Consider `O=c1c2cc(Br)ccc2nc(SCc2ccc([N+](=O)[O-])cc2)n1-c1ccccc1` [8h, 6-bromo-2-((4-nitrobenzyl)thio)-3-phenylquinazolin-4(3 H )-one], for which the melting point fell in the range of 231 to 233 °C. Moreover, the IC50 in data set [1] (Homo sapiens, MCF7) is 73.4 ± 3.09 µM. For the same molecule, the IC50 in the data set on MRC-5 normal cell line (setting [3]) is > 100 µM. Moreover, in data set [2], the IC50 stood at 65.4 ± 2.8 µM.

As to `N.N.[Cl][Pt][Cl]` [Cisplatin, reference compound], the IC50 worked out at 9.9 ± 0.14 µM in data set [1] and 45.2 ± 2.5 µM in the data set on MRC-5 normal cell line (3 repetitions).

Regarding `COc1cccc2c1C(=O)c1c(O)c3c(c(O)c1C2=O)C[C@@](O)(C(=O)CO)C[C@@H]3O[C@H]1C[C@H](N)[C@H](O)[C@H](C)O1` [Doxorubicin, reference compound], the IC50 was determined as 2.5 ± 0.64 µM in data set [1] (Homo sapiens, MCF7); 0.52 ± 0.07 µM with MRC-5 normal cell line (setting [3]); 3.67 ± 0.24 µM in data set [2].

As for `C#Cc1cccc(Nc2ncnc3cc(OCCOC)c(OCCOC)cc23)c1` [Erlotinib, reference compound], the IC50 worked out at 22.9 ± 3.1 µM with MRC-5 normal cell line (setting [3]) and 11.2 ± 0.38 µM in data set [2].
